One assay relates to S. aureus. The assay can be described thus: Inhibition of RIND IX reduction by various cyclic polypeptide antibiotics. The assay is classed as cell-based, Staphylococcus aureus. The conditions noted are these: Test Method 1 (antibiotic in the test solution), S. aureus about 4.3×10^8 cells/ml, 100 μl of 1 mg/ml antibiotic solution, 30 minutes at 37° C., 635 nm. Here is the method: The following materials were used in this example: stock solutions of RIND IX compound dispersion prepared as described above, glucose (10% in water), trimethyl-1,4-benzoquinone ETA (1.5 mg/ml methanol), and the antibiotics (1 mg/ml in dimethylsulfoxide). S. aureus cells were grown as described above. The final cell concentration in the assay mixture was about 4.3×10^8 cells/ml.
Test solutions were prepared by adding in the order: 1.2 ml of HEPES buffer, 50 μl glucose solution, 1.5 ml of RIND IX dispersion, 100 μl of antibiotic solution, 100 μl of cell suspension and 25 μl of ETA solution. Control solutions were prepared as described in Examples 2 and 3. Optical density readings (OD) were measured at 635 nm at 0 minutes and after incubation at 37° C. for 30 minutes for test and control solutions, and the change in density (ΔOD) was determined. Table VI below lists the results, expressed as corrected percent inhibition of the reduction of the RIND compound. The corrected percent inhibition is calculated by dividing the difference between the ΔOD obtained from the Cell Control without antibiotic and the ΔOD of the test solution, by ΔOD of the Cell Control without antibiotic. All readings were corrected by subtracting readings of the appropriate background Controls.
Solutions containing 2.9 ml HEPES, 50 μl of the antibiotic solution and 100 μl cell solution were incubated at 37° C. for 30 minutes, centrifuged for 10 minutes and decanted. The resulting pellet was then treated with 1.4 ml HEPES, 50 μl glucose solution, 1.5 ml RIND IX dispersion and 25 μl ETA solution, mixed well and the densities recorded as described above in Method 1. The corrected percent inhibition data was calculated as described in Method 1 above.

In assay [1] the test system is viable gram-positive and gram-negative bacteria. The assay can be described thus: Differentiation in RIND XXIX solution assays, overall result. The assay is classed as cell-based. As to conditions: polymixin B at 0.01 mg/ml of methanol. As for the experimental part: (§1) Each test solution contained the following: dispersion of RIND XXIX (25 μl) prepared as described above, glucose (400 μl of 10% aqueous solution), tryptose (400 μl of 10% aqueous solution), trimethyl-1,4-benzoquinone ETA (500 μl of 1.5 mg/ml methanol). Aliquots (200 μl) of the mixture were mixed with solutions of the antibiotics (50 μl). The cell suspensions (50 μl) were then added. The final concentration of gramcidin S and tyrocidin were 0.1 mg/ml and 3.3 mg/ml, respectively. The final cell concentration was about 5×10^7 cells/ml. Cell control solutions contained all reagents except antibiotics. Background controls consisted of both buffer and solution controls. The buffer control contained all reagents except antibiotics and cells. The solution control contained all reagents except cells.
The solutions were incubated at 37° C. for 30 minutes, and the change in fluorescence emission (Δ fluorescence) was determined as the difference between the readings taken when the solutions were first mixed and then after 30 minutes incubation. Measurements were made in a commercially available MICROFLUOR Reader (available from Dynatech Laboratories, Alexandria, Virginia, U.S.A.), modified with an excitation filter at 540 nm, an emission filter at 620 nm and a Xenon lamp.
This example illustrates the practice of this invention to identify a Proteus species in solution. Test solutions and cell control solutions were prepared and tested as described in Example 2 and 3 except that polymixin B was used at 0.01 mg/ml of methanol. The final cell concentration was about 5×10^7 cells/ml.

Another assay relates to E. cloacae. Description: RIND XXIX reduction solution assay, Δ fluorescence. The conditions noted are these: E. cloacae (gram -) about 5×10^7 cells/ml, polymixin B at 0.01 mg/ml of methanol. The assay is classed as cell-based, Enterobacter cloacae. Here is the method: (§2) Bacterial suspensions were prepared by growing the cells in BHT broth to stationary phase overnight at 37° C. P. auruginosa was grown with agitation. About 40 ml of each overnight culture was centrifuged, decanted and washed once with 0.05 molar potassium phosphate buffer or 0.05 molar N-2-hydroxy-ethylpiperazine-N'-2-ethanesulfonic acid (HEPES) buffer, pH 7.8, and resuspended in buffer.
(§3) Dispersions containing RIND compounds were prepared by dissolving the RIND compound in N,N-dimethylformamide (DMF) at 16 mg compound per ml of solvent. An aliquot (250 μl) of the resulting solution was added to 500 μl of TRITON X-100 surfactant. This mixture was then added dropwise with stirring to 25 ml of 0.05 molar HEPES buffer. A dispersion of RIND XXIX was prepared similarly except that DMF was acidified with 0.1% sulfuric acid. Compositions containing water-compatible RIND compounds were prepared as described above except the surfactant was omitted.
as §1, with “The buffer control contained all reagents except antibiotics and cells. The solution control contained all reagents except cells.” left out
(§4) The solutions were incubated at 37° C. for 30 minutes, and the change in fluorescence emission (Δ fluorescence) was determined as the difference between the readings taken when the solutions were first mixed and then after 30 minutes incubation. Measurements were made in a commercially available MICROFLUOR Reader (available from Dynatech Laboratories, Alexandria, Virginia, U.S.A.), modified with an excitation filter at 540 nm, an emission filter at 620 nm and a Xenon lamp. […]

A further assay has as its system P. aeruginosa. Description: RIND XXIX reduction solution assay, Δ fluorescence. The assay is classed as cell-based, Pseudomonas aeruginosa. As to conditions: P. aeruginosa (gram -) about 5×10^7 cells/ml, polymixin B at 0.01 mg/ml of methanol. As for the experimental part:
as §2, §3
as §1, with “The buffer control contained all reagents except antibiotics and cells. The solution control contained all reagents except cells.” left out
as §4

A further assay deals with E. coli. The assay can be described thus: RIND XXIX reduction solution assay, Δ fluorescence. The assay is classed as cell-based, Escherichia coli. The conditions noted are these: E. coli (gram -) about 5×10^7 cells/ml, polymixin B at 0.01 mg/ml of methanol. Here is the method:
as §2, §3
as §1, with “The buffer control contained all reagents except antibiotics and cells. The solution control contained all reagents except cells.” left out
as §4

The subject of a further assay is K. pneumoniae. The assay can be described thus: RIND XXIX reduction solution assay, Δ fluorescence. The assay is classed as cell-based, Klebsiella pneumoniae. The conditions noted are these: K. pneumoniae (gram -) about 5×10^7 cells/ml, polymixin B at 0.01 mg/ml of methanol. As for the experimental part: as §2, §3
as §1, with “The buffer control contained all reagents except antibiotics and cells. The solution control contained all reagents except cells.” left out
as §4

The test system of the next assay is P. vulgaris. Description: RIND XXIX reduction solution assay, Δ fluorescence. The assay is classed as cell-based, Proteus vulgaris. The conditions noted are these: P. vulgaris (gram -) about 5×10^7 cells/ml, polymixin B at 0.01 mg/ml of methanol. As for the experimental part: as §2, §3
as §1, with “The buffer control contained all reagents except antibiotics and cells. The solution control contained all reagents except cells.” left out
as §4

Consider `CN[C@H](CC(C)C)C(=O)N[C@H]1C(=O)N[C@@H](CC(N)=O)C(=O)N[C@H]2C(=O)N[C@H]3C(=O)N[C@H](C(=O)N[C@H](C(=O)O)c4cc(O)cc(O)c4-c4cc3ccc4O)[C@H](O)c3ccc(c(Cl)c3)Oc3cc2cc(c3O[C@@H]2O[C@H](CO)[C@@H](O)[C@H](O)[C@H]2O[C@H]2C[C@](C)(N)[C@H](O)[C@H](C)O2)Oc2ccc(cc2Cl)[C@H]1O` [Vancomycin, vancomycin], for which the “Corrected % Inhibition” value with S. aureus was “No Inhibition”.

As for polymixin B, the “inhibition of reduction of RIND XXIX by gram-negative microorganisms, in words” value in assay [1] is listed as “inhibited all of the gram-negative microorganisms except Proteus vulgaris from reducing the RIND XXIX compound”. Also, the “Δ Relative Fluorescence (30 Minutes)” value with E. cloacae came out at 1975; in the assay with P. aeruginosa it was 1287; in the assay on E. coli, 1245; with K. pneumoniae, 1212; in the assay on P. vulgaris it was 3079.

These data come from patent US4912036A, “Rapid differentiation of bacteria using cyclic polypeptide antibiotics” (Eastman Kodak Company, priority 1986, dated 1990).
